Where two headings read alike, the source gives them in different places. Numbered stars: 1 amine (or outer) side, 2 acyl side, 3 side chain; on linkers, the order of the positions; unused ones are H or OH. Bridge positions count the residues as written; N and C are the ends. Square brackets hold non-standard residues; d marks the D form. Peptide text beside a SMILES is read from it. * marks the point of attachment. X2 = CCCCCCCCCC[C@@H](N[*:1])C(=O)[*:2]; Lauroyl = CCCCCCCCCCCC(=O)*; Decanoyl = CCCCCCCCCC(=O)*; Octanoyl = CCCCCCCC(=O)*; Dab = NCC[C@H](N)C(=O)O; Dodecyl = CCCCCCCCCCCC*
What was measured:
[1] = test system: human red blood cells (hRBC); assay: Hemolysis of human red blood cells; format: cell-based; details: 20% hRBC, 1 h, 37° C.
Protocol: The peptides were tested for their hemolytic activity against human red blood cells (hRBC). Fresh hRBC were washed three times with phosphate buffered saline (PBS) and centrifuged for 10 min at 2000×g. Compounds (100 μM) were incubated with 20% hRBC (v/v) for 1 h at 37° C. and shaking at 300 rpm. The final erythrocyte concentration was approximately 0.9×10^9 cells/mL. A value of 0% and 100% cell lyses, respectively, was determined by incubation of hRBC in the presence of PBS containing 0.001% acetic acid and 2.5% Triton X-100 in H2O, respectively. The samples were centrifuged, the supernatants were 8-fold diluted in PBS buffer and the optical densities (OD) were measured at 540 nm. The 100% lyses value (OD540H2O) gave an OD540 of approximately 0.5-1.0.
(§1) Percent hemolysis was calculated as follows: (OD540peptide/OD540H2O)×100%. 2.6. Plasma Stability

[2] = Plasma stability in human plasma; format: in vitro ADME; details: human plasma, 37° C.; for remaining at 24 h, 10 μM: 1440 min, read-out: human pl. cpd left at 1440 min; for human pl. T1/2: up to 1440 min
Protocol: as §1
(§2) The stability of the peptides in human and mouse plasma was determined by applying the following method: 346.5 μL/deep well of freshly thawed human plasma (Basler Blutspendedienst) and mouse plasma (Harlan Sera-Lab, UK), respectively, were spiked with 3.5 μL/well of compound dissolved in DMSO/H2O ([…] [v/v], 1 mM, triplicate) and incubated at 37° C. At t=0, 15, 30, 60, 120, 240 and 1440 min aliquots of 50 μL were transferred to filtration plate wells containing 150 μL/well of 2% formic acid in acetonitrile. Following shaking for 2 min the occurred suspensions were filtrated by vacuum and 50 μL of each filtrate was mixed with 100 μL of 1% formic acid in H2O. After transfer to a propylene microtiter plate, the filtrates were analyzed by LC/MS as follows: Column: Waters, XBridge C18, mobile phases: (A) water+0.1% formic acid and (B) acetonitrile/water, 95/5 (v/v)+0.1% formic acid, gradient: 5%-100% (B) in 2 minutes, electrospray ionization, MRM detection (triple quadrupole). The peak areas were determined and triplicate values are averaged. The stability is expressed in percent of the initial value at t=0. (tx/t0×100). By using the TREND function of EXCEL (Microsoft Office 2003) T1/2 were determined.

[3] = Cytotoxicity, MTT reduction assay, COS-7 cells; format: cell-based; details: African green monkey, COS-7 cells (CRL-1651), 12.5-50 μM
Protocol: (§3) Mouse pre-B cells were cultured in RPMI1640 plus 5% FBS, antibiotic/antimycotic, non essential amino acid, 50 μM β-mercaptoethanol and 1 mM natrium pyruvate. HELA cells were maintained in RPMI1640 plus 10% FBS, pen/strept and 2 mM L-glutamine. Cos-7 cells were grown in DMEM medium with […] glucose supplemented with 10% FCS, pen/strept and 2 mM L-glutamine. All cell lines were grown at 37° C. at 5% CO2. Cell media, media supplements, PBS-buffer, HEPES, antibiotic/antimycotic, pen/strept, non essential amino acid, L-glutamine, β-mercaptoethanol and sera were purchased from Gibco (Pailsey, UK). All fine chemicals were supplied by Merck (Darmstadt, Germany).
(§4) The cytotoxicity of the peptides to HELA cells (Acc57) and COS-7 cells (CRL-1651) was determined using the MTT reduction assay (T. Mossman, J. Immunol. Meth. 1983, 65, 55-63; M. V. Berridge, A. S. Tan, Arch. Biochem. Biophys. 1993, 303, 474-482). Briefly, the method was as follows: 4000 HELA cells/well and 3400 COS-7 cells/well were seeded and grown in 96-well microtiter plates for 24 h at 37° C. at 5% CO2. Thereafter, time zero (Tz) was determined by MTT reduction (see below). The supernatant of the remaining wells was discarded, and fresh medium and compounds in serial dilutions (12.5, 25 and 50 μM, triplicates) were pipetted into the wells. After incubation of the cells for 48 h at 37° C. at 5% CO2 the supernatant was discarded again and 100 μL MTT reagent (0.5 mg/mL in RPMI1640 and DMEM, respectively)/well was added. Following incubation at 37° C. for 2-4 h the media were aspirated and the cells were spiked (100 μL isopropanol/well). The absorbance of the solubilized formazan was measured at 595 nm (OD595peptide). For each concentration averages were calculated from triplicates. The percentage of growth was calculated as follows: (OD595peptide-OD595Tz-OD595Empty well)/(OD595Tz-OD595Empty well)×100%. The GI50 (Growth Inhibition) concentrations were calculated for each peptide by using a trend line function for the concentrations (50, 25, 12.5 and 0 μM), the corresponding percentages and the value 50, (=TREND (C50: C0, %50:%0,50).

[4] = Cytotoxicity, MTT reduction assay, HELA cells; format: cell-based; details: human, HELA cells (Acc57), 12.5-50 μM
Protocol: as §3, §4

[5] = Plasma stability in mouse plasma; format: in vitro ADME; details: mouse plasma, 37° C.; for remaining at 24 h, 10 μM: 1440 min, read-out: mouse pl. cpd left at 1440 min; for mouse pl. T1/2: up to 1440 min
Protocol: as §1, §2

human CXCR4 = molecular target: T1, human CXCR4 (Homo sapiens, UniProt P61073); assay: Ca2+-assay: CXCR4-antagonizing activity (SDF-1 induced calcium mobilization); format: cell-based
T1 construct: expressed in transfected cells; host or cells: mouse pre-B cell line 300-19
Excerpt: 2.3. Ca^2+-Assay: CXCR4-Antagonizing Activity of the Peptides
Increases in intracellular calcium were monitored using a Flexstation 384 (Molecular Devices, Sunnyvale, Calif.) to assay the peptides for CXCR4 antagonism in a mouse pre-B cell line 300-19 stably transfected with human CXCR4 (E. Oberlin, A. Amara, F. Bachelerie, C. Bessia, J.-L. Virelizier, F. Arenzana-Seisdedos, O, Schwartz, J.-M. Heard, I. Clark-Lewis, D. F. Legler, M. Loetscher, M. Baggiolini, B. Moser, Nature 1996, 382, 833-835; M. Loetscher, T. Geiser, T. O'Reilly, R. Zwalen, M. Baggiolini, B. Moser, J. Biol. Chem. 1994, 269, 232-237; M. D'Apuuo, A. Rolink, M. Loetscher, J. A. Hoxie, I. Clark-Lewis, F. Melchors, M. Baggiolini, B. Moser, Eur. J. Immunol. 1997, 27, 1788-1793). The cells were batch loaded with the Calcium 4 Assay kit (Molecular Devices) in assay buffer (Hanks Balanced salt solution [HBSS], 20 mM HEPES, pH 7.4, 0.1% BSA) for 1 h at room temperature and labeled cells were dispensed into black well assays plates (Costar No. 3603). Calcium mobilization induced by stromal-derived factor-1 (SDF-1) was measured in the Flexstation 384 (excitation: 485 nm; emission: 525 nm) for 90 seconds. Antagonist activity of peptides was determined by spiking the cells with compounds prior to SDF-1 addition. Dose response curves (compound concentration versus % maximum response for SDF-1) were determined for each antagonist and IC50 values were calculated by fitting the data to a four parameter logistic equation using SoftmaxPro 4.8 (Molecular Devices).

[6] = mouse pre-B cell line 300-19 transfected with human CXCR4, SDF-1 induced Ca2+ mobilization, read-out: IC50% [nM] ± SD, CXCR4 receptor

T1 sequence (P61073 whole entry): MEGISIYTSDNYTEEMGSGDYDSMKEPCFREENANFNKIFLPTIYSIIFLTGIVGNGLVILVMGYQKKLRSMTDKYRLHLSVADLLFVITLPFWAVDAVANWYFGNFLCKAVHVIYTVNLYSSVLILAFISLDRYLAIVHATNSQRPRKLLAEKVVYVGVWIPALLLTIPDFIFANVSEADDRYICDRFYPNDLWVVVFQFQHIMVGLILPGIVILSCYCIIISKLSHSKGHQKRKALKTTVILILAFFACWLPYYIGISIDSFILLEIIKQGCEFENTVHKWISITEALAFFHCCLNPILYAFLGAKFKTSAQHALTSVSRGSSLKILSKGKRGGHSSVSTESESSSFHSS

SMILES | Hemolysis at 100 μM [1] [%] | remaining at 24 h, 10 μM [2] [%] | human pl. T1/2 [2] [h] | GI50 at 48 h [3] [µM] | GI50 at 48 h [4] [µM] | remaining at 24 h, 10 μM [5] [%] | mouse pl. T1/2 [5] [h] | IC50 (human CXCR4; [6]) [nM] | IC50 (human CXCR4) [nM]
CCCCCCCC(=O)NCCCC[C@@H]1NC(=O)[C@H](Cc2c[nH]cn2)NC(=O)[C@H](Cc2ccc(O)cc2)NC(=O)[C@@H]2CCCN2C(=O)[C@H]2CCCN2C(=O)[C@H](CCCCN)NC(=O)[C@H](CCC(N)=O)NC(=O)[C@H](Cc2ccc(O)cc2)NC(=O)[C@@H]2CSSC[C@H](NC1=O)C(=O)N[C@@H](CO)C(=O)N[C@@H](C)C(=O)N1CCC[C@@H]1C(=O)N[C@@H](CCN)C(=O)N[C@@H](CCCNC(=N)N)C(=O)N[C@@H](Cc1ccc(O)cc1)C(=O)N2 [Ex. 3] (cyclo(YHK(Octanoyl)CSA[dP][Dab]RYCYQK[dP]P); disulfide 4-11) | 0.6 | 86 | 24 | > 50 | > 45 | 86 | 24 | 19.4 ± 13 | –
CCCCCCCCCCCC(=O)NCC[C@@H]1NC(=O)[C@H]2CCCN2C(=O)[C@H](C)NC(=O)[C@H](CCCNC(=N)N)NC(=O)[C@@H]2CSSC[C@H](NC(=O)[C@H](Cc3ccc(O)cc3)NC(=O)[C@H](CCCNC(=N)N)NC1=O)C(=O)N[C@@H](Cc1ccc(O)cc1)C(=O)N[C@@H](CCC(N)=O)C(=O)N[C@@H](CCCCN)C(=O)N1CCC[C@@H]1C(=O)N1CCC[C@H]1C(=O)N[C@@H](Cc1ccc(O)cc1)C(=O)N[C@@H](Cc1c[nH]cn1)C(=O)N[C@@H](C)C(=O)N2 [Ex. 5] (cyclo(YHACRA[dP][Dab](Lauroyl)RYCYQK[dP]P); disulfide 4-11) | 0.3 | 100 | 24 | > 43 | > 50 | 73 | 24 | – | 95.5 ± 12
CCCCCCCCCCCCOc1ccc(C[C@@H]2NC(=O)[C@H](CCCNC(=N)N)NC(=O)[C@H](CCN)NC(=O)[C@H]3CCCN3C(=O)[C@H](C)NC(=O)[C@H](CCCNC(=N)N)NC(=O)[C@@H]3CSSC[C@H](NC2=O)C(=O)N[C@@H](Cc2ccc(O)cc2)C(=O)N[C@@H](CCC(N)=O)C(=O)N[C@@H](CCCCN)C(=O)N2CCC[C@@H]2C(=O)N2CCC[C@H]2C(=O)N[C@@H](Cc2ccc(O)cc2)C(=O)N[C@@H](Cc2c[nH]cn2)C(=O)N[C@@H](C)C(=O)N3)cc1 [Ex. 7] (cyclo(YHACRA[dP][Dab]RY(Dodecyl)CYQK[dP]P); disulfide 4-11) | 11.5 | 67 | 24 | > 50 | > 35 | 87 | 24 | – | 59.8 ± 27
CCCCCCCCCC[C@H]1NC(=O)[C@H](Cc2ccc(O)cc2)NC(=O)[C@@H]2CSSC[C@H](NC(=O)[C@H](C)NC(=O)[C@H](Cc3c[nH]cn3)NC(=O)[C@H](Cc3ccc(O)cc3)NC(=O)[C@@H]3CCCN3C(=O)[C@H]3CCCN3C(=O)[C@H](CCCCN)NC1=O)C(=O)N[C@@H](CCCNC(=N)N)C(=O)N[C@@H](C)C(=O)N1CCC[C@@H]1C(=O)N[C@@H](CCN)C(=O)N[C@@H](CCCNC(=N)N)C(=O)N[C@@H](Cc1ccc(O)cc1)C(=O)N2 [Ex. 9] (cyclo(YHACRA[dP][Dab]RYCY[X2]K[dP]P); disulfide 4-11) | 2.2 | 100 | 24 | > 50 | > 13 | 76 | 24 | 91.3 ± 19 | –
CCCCCCCCCC(=O)NCC[C@@H]1NC(=O)[C@H](Cc2ccc(O)cc2)NC(=O)[C@@H]2CSSC[C@H](NC(=O)[C@H](C)NC(=O)[C@H](Cc3c[nH]cn3)NC(=O)[C@H](Cc3ccc(O)cc3)NC(=O)[C@@H]3CCCN3C(=O)[C@H]3CCCN3C(=O)[C@H](CCCCN)NC1=O)C(=O)N[C@@H](CCCNC(=N)N)C(=O)N[C@@H](C)C(=O)N1CCC[C@@H]1C(=O)N[C@@H](CCN)C(=O)N[C@@H](CCCNC(=N)N)C(=O)N[C@@H](Cc1ccc(O)cc1)C(=O)N2 [Ex. 10] (cyclo(YHACRA[dP][Dab]RYCY[Dab](Decanoyl)K[dP]P); disulfide 4-11) | 1.0 | 85 | 24 | > 50 | > 50 | 63 | 24 | 8.1 ± 0.9 | –
